Test results reported in paper PMC10974533, “Cationicity Enhancement on the Hydrophilic Face of Ctriporin Significantly Reduces Its Hemolytic Activity and Improves the Antimicrobial Activity against Antibiotic-Resistant ESKAPE Pathogens” (Toxins, 2024).
Where a SMILES comes first, the peptide text is derived from it.

Experiments:
Experiment in all cases: MIC, broth dilution, clinical isolate
Assay type in all cases: cell-based
[1] = test system: A. baumannii 19295; conditions: CRE/MDR clinical isolate
Protocol: (§1) The standard strains, including S. aureus ATCC29213 and ATCC25923, E. faecalis ATCC29212, E. coli ATCC25922 and ATCC35218, A. baumannii ATCC19606, K. pneumoniae ATCC700603, and P. aeruginosa ATCC27853, were purchased from the China Center of Type Culture Collection (CCTCC). The clinical strains of the ESKAPE pathogens were isolated from the affiliated hospitals of Hubei University of Medicine. All of them were stored at −80 °C before use. The drug sensitivities of the clinical strains were determined by the Kirby–Bauer test.
(§2) The MICs were determined using the broth dilution method according to the guidelines of the Clinical and Laboratory Standards Institute (CLSI), as described in the previous studies. Briefly, the bacterial cells were incubated in Mueller–Hinton broth (MHB, Oxoid, Basingstoke, UK) at 37 °C and 150 rpm to the mid-growth phase and diluted to achieve a final concentration of 5 × 10^5 colony-forming units per milliliter (CFU/mL). Then, the cells were mixed with each peptide in different concentrations (1, 2, 4, 8, 16, 32, and 64 μg/mL). […] All experiments were repeated at least three times.

[2] = test system: A. baumannii 19618; conditions: CRE/MDR clinical isolate
Protocol: as §1, §2

[3] = test system: E. coli 2678; conditions: ESBL clinical isolate
Protocol: as §1, §2

[4] = test system: E. faecium 898; conditions: MDR clinical isolate
Protocol: as §1, §2

[5] = test system: K. pneumoniae 9126; conditions: CRE clinical isolate
Protocol: as §1, §2

[6] = test system: P. aeruginosa 9014; conditions: CRE/MDR clinical isolate
Protocol: as §1, §2

[7] = test system: S. aureus 9124; conditions: MRSA clinical isolate
Protocol: as §1, §2

[8] = test system: S. capitis 3255; conditions: MRSC clinical isolate
Protocol: as §1, §2

[9] = test system: S. epidermidis 6943; conditions: MRSE clinical isolate
Protocol: as §1, §2

[10] = test system: S. epidermidis 9092; conditions: MRSE clinical isolate
Protocol: as §1, §2

[11] = broth dilution (CLSI), MHB, 5 × 10^5 CFU/mL, 37 °C, 16–20 h, OD630

## CC[C@H](C)[C@H](NC(=O)[C@H](C)NC(=O)CNC(=O)[C@@H]1CCCN1C(=O)[C@@H](NC(=O)[C@H](CC(C)C)NC(=O)CNC(=O)[C@H](Cc1c[nH]c2ccccc12)NC(=O)[C@H](CC(C)C)NC(=O)[C@@H](N)Cc1ccccc1)[C@@H](C)CC)C(=O)N[C@@H](CO)C(=O)N[C@@H](C)C(=O)N[C@H](C(=O)N[C@H](C(=O)N[C@@H](CO)C(=O)N[C@@H](CC(C)C)C(=O)N[C@H](C(=O)N[C@@H](CCCCN)C(=O)N[C@@H](CCCCN)C(N)=O)[C@@H](C)CC)[C@@H](C)O)C(C)C [Ctriporin] (H-FLWGLIPGAISAVTSLIKK-NH2; N-terminus assumed)
[1]; [11]
  MICs: 32 µg/mL
[1]; value in parentheses
  MICs: 15.9 µM
[2]; [11]
  MICs: 32 µg/mL
[2]; value in parentheses
  MICs: 15.9 µM
[3]; [11]
  MICs: 64 µg/mL
[3]; value in parentheses
  MICs: 31.8 µM
[4]; [11]
  MICs: 16 µg/mL
[4]; value in parentheses
  MICs: 8.0 µM
[5]; [11]
  MICs: > 64 µg/mL
[5]; value in parentheses
  MICs: > 31.8 µM
[6]; [11]
  MICs: > 64 µg/mL
[6]; value in parentheses
  MICs: > 31.8 µM
[7]; [11]
  MICs: 8 µg/mL
[7]; value in parentheses
  MICs: 4.0 µM
[8]; [11]
  MICs: 8 µg/mL
[8]; value in parentheses
  MICs: 4.0 µM
[9]; [11]
  MICs: 8 µg/mL
[9]; value in parentheses
  MICs: 4.0 µM
[10]; [11]
  MICs: 8 µg/mL
[10]; value in parentheses
  MICs: 4.0 µM
